Measurements published in US9284323B2, “Naphthalene acetic acid derivatives against HIV infection” (Gilead Sciences, Inc., priority 2012, dated 2016).

What follows are molecules tested on HIV-IIIb (assay: Test A: Antiviral Assays in MT4 Cells). Conditions: Human immunodeficiency virus 1, IIIB, MT4, 120 h, Table II; MT-4 cells infected with HIV-IIIb, 5 days incubation, CellTiter-Glo readout.
Format: cell-based

| SMILES | EC50 |
| --- | --- |
| Cc1c([C@H](OC(C)(C)C)C(=O)O)c(-c2ccc3c4c(ccnc24)CCO3)c2ccccc2c1O (atropisomer, axis not shown) [Example 83] | 14.9 nM |
| Cc1ccc2c(-c3ccc4c5c(ccnc35)CCO4)c(C(OC(C)(C)CF)C(=O)O)c(C)cc2c1 (stereo not shown) [Example 65] | 12.1 nM |
| Cc1cc2ccccc2c(-c2ccc3c4c(ccnc24)CCO3)c1[C@H](OC(C)(CF)CF)C(=O)O (atropisomer, axis not shown) [Example 105] | 15.4 nM |
| Cc1cc2c(N)cccc2c(-c2ccc3c4c(ccnc24)CCO3)c1[C@H](OC(C)(C)C)C(=O)O (atropisomer, axis not shown) [Example 91] | 11.7 nM |
| CC(C)(C)O[C@H](C(=O)O)c1c(-c2ccc3c4c(ccnc24)CCO3)c2ccccc2c2[nH]ncc12 (atropisomer, axis not shown) [Example 90] | 366 nM |

Same assay, conditions: Table I; MT-4 cells infected with HIV-IIIb, 5 days incubation, CellTiter-Glo readout

| SMILES | EC50 |
| --- | --- |
| COCC(C)(C)O[C@H](C(=O)O)c1c(C)cc2ccccc2c1-c1ccc2c3c(ccnc13)CCO2 (atropisomer, axis not shown) [Example 25, (2S)-2-((R)-1-(2,3-dihydropyrano[4,3,2-de]quinolin-7-yl)-3-methylnaphthalen-2-yl)-2-(1-methoxy-2-methylpropan-2-yloxy)acetic acid] | 37 nM |

Same assay, conditions: Table II; MT-4 cells infected with HIV-IIIb, 5 days incubation, CellTiter-Glo readout

| SMILES | EC50 |
| --- | --- |
| Cc1cc2c(C)c(-c3cnc(N)nc3)ccc2c(-c2ccc3c4c(ccnc24)CCO3)c1[C@H](OC(C)(C)C)C(=O)O [Example 74] | 37800 nM |
| Cc1cc2cccc(F)c2c(-c2ccc3c4c(ccnc24)CCO3)c1[C@H](OC(C)(C)C)C(=O)O (atropisomer, axis not shown) [Example 69] | 11.3 nM |
| Cc1c([C@H](OC(C)(C)C)C(=O)O)c(-c2ccc3c4c(ccnc24)CCO3)c2ccccc2c1C(F)F (atropisomer, axis not shown) [Example 86] | 131 nM |
| Cc1cc2ccccc2c(-c2ccc3c4c(ccnc24)CCO3)c1[C@H](OC(C)(C)CCF)C(=O)O (atropisomer, axis not shown) [Example 97] | 43 nM |
| Cc1cc2cc(-c3cncnc3C)ccc2c(-c2ccc3c4c(ccnc24)CCO3)c1[C@H](OC(C)(C)C)C(=O)O (atropisomer, axis not shown) [Example 57] | 10000 nM |
| CC(C)(C)O[C@H](C(=O)O)c1c(-c2ccc3c4c(ccnc24)CCO3)c2ccccc2c2occc12 (atropisomer, axis not shown) [Example 77] | 32400 nM |
| Cc1cc2c(C)c(-c3cnc(N)nc3)ccc2c(-c2ccc3c4c(ccnc24)CCO3)c1[C@H](OC(C)(C)C)C(=O)O (atropisomer, axis not shown) [Example 75] | 6.95 nM |
